# From the SangsterLogP compilation
# Assay: method code SF-AS, from DOI: 10.1080/01483918708066826
row,SMILES,logP
1,O=C(O)c1ccccc1-n1cccc1,2.04
2,O=C(O)Cn1cccc1,0.7
3,O=C(O)C(c1ccccc1F)n1cccc1 (stereo not given),2.49
4,O=C(O)C(Cc1ccc(F)cc1)n1cccc1 (stereo not given),2.04
5,O=C(O)C(c1ccccc1)n1cccc1 (stereo not given),1.57
6,O=C(O)C(Cc1ccc(O)cc1)n1cccc1 (stereo not given),1.56
7,O=C(O)Cc1ccc(-n2cccc2)cc1,0.76
8,O=C(O)C(Cc1ccccc1)n1cccc1 (stereo not given),2.34
9,O=C(O)C(c1ccc(Cl)cc1)n1cccc1 (stereo not given),2.3
10,O=C(O)C(Cc1ccc(Cl)cc1)n1cccc1 (stereo not given),2.08
